Source: US9765075B2, “Substituted bridged urea analogs as sirtuin modulators” (GLAXOSMITHKLINE LLC, priority 2013, dated 2017)

Target: T1, SIRT1 (Homo sapiens, UniProt Q96EB6)
T1 sequence (Q96EB6 1-747): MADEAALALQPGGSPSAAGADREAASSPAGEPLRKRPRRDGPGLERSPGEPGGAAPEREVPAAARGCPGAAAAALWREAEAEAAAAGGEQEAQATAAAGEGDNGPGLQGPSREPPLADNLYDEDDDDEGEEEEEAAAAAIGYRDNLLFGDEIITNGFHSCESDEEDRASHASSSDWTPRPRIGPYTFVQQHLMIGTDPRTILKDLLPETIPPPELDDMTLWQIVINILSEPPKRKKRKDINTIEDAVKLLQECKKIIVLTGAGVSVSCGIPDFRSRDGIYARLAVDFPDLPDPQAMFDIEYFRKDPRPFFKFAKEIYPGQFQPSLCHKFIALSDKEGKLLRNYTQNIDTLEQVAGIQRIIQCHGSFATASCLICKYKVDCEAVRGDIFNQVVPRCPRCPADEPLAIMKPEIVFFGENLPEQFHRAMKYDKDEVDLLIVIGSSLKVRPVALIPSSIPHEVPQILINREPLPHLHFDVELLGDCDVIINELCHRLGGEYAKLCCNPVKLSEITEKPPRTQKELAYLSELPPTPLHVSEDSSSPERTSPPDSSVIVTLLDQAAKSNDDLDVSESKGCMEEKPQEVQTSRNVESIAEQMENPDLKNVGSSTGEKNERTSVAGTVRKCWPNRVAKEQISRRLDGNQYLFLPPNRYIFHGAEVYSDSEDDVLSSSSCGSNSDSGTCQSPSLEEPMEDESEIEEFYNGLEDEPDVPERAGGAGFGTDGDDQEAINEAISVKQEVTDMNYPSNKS
Assay: Trp mass spectrometry assay (SIRT1 activation)
Assay type: biochemical
Settings: Trp mass spectrometry assay; for Tryp AVG EC1.5 (μM): EC1.5 = concentration giving 150% activation of SIRT1; for Emax: percent maximum fold activation of SIRT1, read-out: Tryp % Fold Act
Summary of the method: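 Activation is expressed as EC1.5, the concentration raising activity 50% above DMSO control, and as maximum percent of control. Mass-spec readout was OAADPR or deacetylated Trp peptide after a formic-acid-quenched 25-min, 25 °C reaction: 10 nM bacterially expressed His-SIRT1, 0.5 μM acetyl-p53-derived peptide, 120 μM NAD+, pH 7.5 HEPES with […].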

| SMILES | Tryp AVG EC1.5 (μM) | Emax [%] |
| --- | --- | --- |
| O=C(Nc1nnc(-c2ccncc2)s1)N1c2nc(-c3cccc(C(F)(F)F)c3)ccc2N2CC[C@H]1C2 [Example 733] | A (EC1.5<1 μM) | ≥ 150 |
| O=C(Nc1ncc(-c2ccccc2)s1)N1c2nc(-c3cccc(C(F)(F)F)c3)ccc2N2CC[C@H]1C2 [Example 734] | B (EC1.5 1-25 μM) | ≥ 150 |
| CCCC(=O)c1cccc(NC(=O)N2c3nc(-c4cccc(C(F)(F)F)c4)ccc3N3CC[C@H]2C3)c1 [Example 736] | A (EC1.5<1 μM) | ≥ 150 |
| O=C(Nc1cccc(-c2cnco2)c1)N1c2nc(N3CCCN(CC(F)(F)F)CC3)ccc2N2CC[C@H]1C2 [Example 741] | A (EC1.5<1 μM) | ≥ 150 |
| CN1CCN(c2ccnc(NC(=O)N3c4nc(-c5cccc(C(F)(F)F)c5)ccc4N4CC[C@H]3C4)n2)CC1 [Example 742] | A (EC1.5<1 μM) | ≥ 150 |
| O=C(Nc1cc(-c2cnco2)cc(-c2cnco2)c1)N1c2nc(-c3cccc(C(F)(F)F)c3)ccc2N2CC[C@H]1C2 [Example 743] | A (EC1.5<1 μM) | ≥ 150 |
| Cc1cc(-c2ccc3c(n2)N(C(=O)Nc2cc(-c4cnco4)ccn2)[C@H]2CCN3C2)ccn1 [Example 746] | A (EC1.5<1 μM) | ≥ 150 |
| Cc1cc(-c2ccc3c(n2)N(C(=O)Nc2cncc(-c4cnco4)c2)[C@H]2CCN3C2)ccn1 [Example 748] | A (EC1.5<1 μM) | ≥ 150 |
| CC(C)(C)OC(=O)NCC#Cc1cc(NC(=O)N2c3nc(-c4cccc(C(F)(F)F)c4)ccc3N3CC[C@H]2C3)cc(-c2cnco2)c1 [Example 749] | A (EC1.5<1 μM) | ≥ 150 |
| CC(C)(C)OC(=O)NCCCc1ccc(NC(=O)N2c3nc(-c4cccc(C(F)(F)F)c4)ccc3N3CC[C@H]2C3)cc1-c1cnco1 [Example 750] | A (EC1.5<1 μM) | ≥ 150 |
| CC(C)(C)OC(=O)NCC#Cc1ccc(NC(=O)N2c3nc(-c4cccc(C(F)(F)F)c4)ccc3N3CC[C@H]2C3)cc1-c1cnco1 [Example 751] | A (EC1.5<1 μM) | ≥ 150 |
| CC(C)(C)OC(=O)NCCCc1ccc(NC(=O)N2c3nc(-c4cccc(C(F)(F)F)c4)ccc3N3CCC[C@H]2C3)cc1-c1cnco1 [Example 752] | A (EC1.5<1 μM) | ≥ 150 |
| CC(C)(C)OC(=O)NCCCc1cc(NC(=O)N2c3nc(-c4cccc(C(F)(F)F)c4)ccc3N3CCC[C@H]2C3)cc(-c2cnco2)c1 [Example 754] | A (EC1.5<1 μM) |  |
| NCCCCCC(=O)NCc1cccc(NC(=O)N2c3nc(-c4cccc(C(F)(F)F)c4)ccc3N3CC[C@H]2C3)c1 [Example 758] | A (EC1.5<1 μM) | ≥ 150 |
| CC(C)(C)OC(=O)NCCCc1cc(NC(=O)N2c3nc(-c4cccc(C(F)(F)F)c4)ccc3N3CC[C@H]2C3)cc(-c2cnco2)c1 [Example 759] | B (EC1.5 1-25 μM) | ≥ 150 |
| CC(C)(C)OC(=O)NCC#Cc1cc(NC(=O)N2c3nc(-c4cccc(C(F)(F)F)c4)ccc3N3CCC[C@H]2C3)cc(-c2cnco2)c1 [Example 760] | A (EC1.5<1 μM) | ≥ 150 |
| NCC#Cc1ccc(NC(=O)N2c3nc(-c4cccc(C(F)(F)F)c4)ccc3N3CC[C@H]2C3)cc1-c1cnco1 [Example 766] | A (EC1.5<1 μM) | ≥ 150 |
| O=C(Nc1ccccn1)N1c2cc(-c3cccc(C(F)(F)F)c3)ccc2N2CC[C@H]1C2 [Example 785] | C (EC1.5>25 μM) | < 150 |
| CC(C)(C)OC(=O)NCCNC(=N)c1ccc(NC(=O)N2c3nc(-c4cccc(C(F)(F)F)c4)ccc3N3CCC[C@H]2C3)cc1 [Example 788] | A (EC1.5<1 μM) | ≥ 150 |
| CC(=O)NCc1ccc(NC(=O)N2c3nc(-c4cccc(C(F)(F)F)c4)ccc3N3CCC[C@H]2C3)cc1 [Example 790] | A (EC1.5<1 μM) | ≥ 150 |
| N=C(NCCN)c1ccc(NC(=O)N2c3nc(-c4cccc(C(F)(F)F)c4)ccc3N3CCC[C@H]2C3)cc1 [Example 792] | A (EC1.5<1 μM) | ≥ 150 |
| CC(C)(C)OC(=O)NCc1ccc(NC(=O)N2c3nc(-c4cccc(C(F)(F)F)c4)ccc3N3CC[C@H]2C3)cc1 [Example 793] | B (EC1.5 1-25 μM) | ≥ 150 |
| CC(C)(C)OC(=O)NCc1cccc(-c2ccc3c(n2)N(C(=O)Nc2ccncc2)[C@H]2CCCN3C2)c1 [Example 795] | B (EC1.5 1-25 μM) | ≥ 150 |
| C#CCOc1cccc(NC(=O)N2c3nc(-c4cccc(C5(C(F)(F)F)N=N5)c4)ccc3N3CC[C@H]2C3)c1 [Example 797] | A (EC1.5<1 μM) | ≥ 150 |
| C#CCCCNc1nccc(NC(=O)N2c3nc(-c4cccc(C5(C(F)(F)F)N=N5)c4)ccc3N3CC[C@H]2C3)n1 [Example 798] | A (EC1.5<1 μM) | ≥ 150 |

Next, values leading:

| Tryp AVG EC1.5 (μM) | Emax [%] | SMILES |
| --- | --- | --- |
| A (EC1.5<1 μM) | ≥ 150 | CCCCC(=O)c1cccc(NC(=O)N2c3nc(-c4cccc(C(F)(F)F)c4)ccc3N3CC[C@H]2C3)c1 [Example 737] |
| A (EC1.5<1 μM) | ≥ 150 | O=C(Nc1cccc(-c2cnco2)n1)N1c2nc(-c3cncc(F)c3)ccc2N2CC[C@H]1C2 [Example 739] |
| A (EC1.5<1 μM) | ≥ 150 | CC(C)C(=O)c1cccc(NC(=O)N2c3nc(-c4cccc(C(F)(F)F)c4)ccc3N3CC[C@H]2C3)c1 [Example 740] |
| B (EC1.5 1-25 μM) | ≥ 150 | O=C(Nc1nccc(N2CCNCC2)n1)N1c2nc(-c3cccc(C(F)(F)F)c3)ccc2N2CC[C@H]1C2 [Example 745] |
| A (EC1.5<1 μM) | ≥ 150 | CN(C)c1ccnc(NC(=O)N2c3nc(-c4cccc(C(F)(F)F)c4)ccc3N3CC[C@H]2C3)n1 [Example 747] |
| A (EC1.5<1 μM) | ≥ 150 | CC(C)(C)OC(=O)NCC#Cc1ccc(NC(=O)N2c3nc(-c4cccc(C(F)(F)F)c4)ccc3N3CCC[C@H]2C3)cc1-c1cnco1 [Example 753] |
| B (EC1.5 1-25 μM) | ≥ 150 | NCc1cccc(NC(=O)N2c3nc(-c4cccc(C(F)(F)F)c4)ccc3N3CC[C@H]2C3)c1 [Example 755] |
| A (EC1.5<1 μM) | ≥ 150 | NCCCCCC(=O)NCc1cccc(NC(=O)N2c3nc(-c4cccc(C(F)(F)F)c4)ccc3N3CCC[C@H]2C3)c1 [Example 756] |
| A (EC1.5<1 μM) | ≥ 150 | NCc1cccc(NC(=O)N2c3nc(-c4cccc(C(F)(F)F)c4)ccc3N3CCC[C@H]2C3)c1 [Example 757] |
| A (EC1.5<1 μM) | ≥ 150 | FC(F)(F)c1cccc(-c2ccc3c(n2)N(C(=S)Nc2cccc(-c4cnco4)c2)[C@H]2CCN3C2)c1 [Example 763] |
| A (EC1.5<1 μM) | ≥ 150 | NCCCc1ccc(NC(=O)N2c3nc(-c4cccc(C(F)(F)F)c4)ccc3N3CC[C@H]2C3)cc1-c1cnco1 [Example 765] |
| A (EC1.5<1 μM) | ≥ 150 | NCCCc1ccc(NC(=O)N2c3nc(-c4cccc(C(F)(F)F)c4)ccc3N3CCC[C@H]2C3)cc1-c1cnco1 [Example 767] |
| A (EC1.5<1 μM) | ≥ 150 | NCCCc1cc(NC(=O)N2c3nc(-c4cccc(C(F)(F)F)c4)ccc3N3CC[C@H]2C3)cc(-c2cnco2)c1 [Example 770] |
| A (EC1.5<1 μM) | ≥ 150 | N=C(N)NCc1ncc(-c2cccc(NC(=O)N3c4nc(-c5cccc(C(F)(F)F)c5)ccc4N4CC[C@H]3C4)c2)o1 [Example 776] |
| A (EC1.5<1 μM) | ≥ 150 | N=C(N)NCc1ccc(NC(=O)N2c3nc(-c4cccc(C(F)(F)F)c4)ccc3N3CCC[C@H]2C3)cc1 [Example 777] |
| A (EC1.5<1 μM) | ≥ 150 | C[C@@H](N)CS(=O)(=O)c1cccc(-c2ccc3c(n2)N(C(=O)Nc2cc(-c4ccnn4C)nc(-c4ccnn4C)c2)[C@H]2CCN3C2)c1 [Example 780] |
| B (EC1.5 1-25 μM) | ≥ 150 | O=C(Nc1cccc(-c2cnco2)c1)N1c2cc(-c3cccc(C(F)(F)F)c3)ccc2N2CC[C@H]1C2 [Example 786] |
| B (EC1.5 1-25 μM) | ≥ 150 | CC(C)(C)OC(=O)NCc1cccc(-c2ccc3c(n2)C(C(=O)Nc2ccncc2)[C@H]2CCN3C2)c1 (stereo partly drawn) [Example 794] |
| B (EC1.5 1-25 μM) | ≥ 150 | O=C(NCc1ccc(NC(=O)N2c3nc(-c4cccc(C(F)(F)F)c4)ccc3N3CC[C@H]2C3)cc1)OC[C@@H]1[C@@H]2CCC#CCC[C@@H]21 [Example 796] |
